Experimental data taken from PubChem BioAssay (NCI).
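Test compounds were applied to cells in 96-well plates for 48 hours at 5 doses. GI50 is the concentration that inhibits growth by half. At the TGI there is no net growth.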

Tests used:
Assay in all cases: growth of human tumour cells (NCI), 48 h
COLO 205 colon = test system: COLO 205 colon
EKVX NSCLC = test system: EKVX NSCLC
HCT-116 colon = test system: HCT-116 colon
HCT-15 colon = test system: HCT-15 colon
MDA-MB-231 breast = test system: MDA-MB-231 breast
NCI/ADR-RES ovarian = test system: NCI/ADR-RES ovarian
SNB-19 CNS = test system: SNB-19 CNS
SW-620 colon = test system: SW-620 colon
T-47D breast = test system: T-47D breast
TK-10 renal = test system: TK-10 renal

Row | Structure (SMILES) | GI50 (COLO 205 colon) | TGI (COLO 205 colon) | GI50 (EKVX NSCLC) | TGI (EKVX NSCLC) | GI50 (HCT-116 colon) | TGI (HCT-116 colon) | GI50 (HCT-15 colon) | TGI (HCT-15 colon) | GI50 (MDA-MB-231 breast) | TGI (MDA-MB-231 breast) | GI50 (NCI/ADR-RES ovarian) | TGI (NCI/ADR-RES ovarian) | GI50 (SNB-19 CNS) | TGI (SNB-19 CNS) | GI50 (SW-620 colon) | TGI (SW-620 colon) | GI50 (T-47D breast) | TGI (T-47D breast) | GI50 (TK-10 renal) | TGI (TK-10 renal)
1 | COc1ccc2c(c1)[nH]c(=O)c1c3cccnc3cn21 | 0.0359 µM | 0.146 µM | 1.12 µM | > 94.5 µM | 0.0496 µM | 14.3 µM | 43 nM | 29.3 µM | 0.299 µM | 25.4 µM | 0.0231 µM | 0.0571 µM | 0.0515 µM | > 100 µM | 0.0327 µM | 13.2 µM | 2.72 µM | 31.6 µM | 0.056 µM | 18.8 µM
2 | FC(F)(F)c1ccc2c(c1)N(CCCN1CCN(C3CC3)CC1)c1ccccc1S2 | 9.45 µM | 21.5 µM | 6.09 µM | 22.2 µM | 9.43 µM | 23.2 µM | 3810 nM | 18.6 µM | 10.9 µM | 26.1 µM | 10.3 µM | 23.1 µM | 17.1 µM | 36.2 µM | 4.42 µM | 18.1 µM | 12.5 µM | 26.9 µM | 13.8 µM | 27.2 µM
3 | C[C@]12CC[C@H]3[C@@H](CCC4=CC(=O)CC[C@@H]43)[C@@H]1CC[C@@H]2OC1(O)C(=O)c2ccccc2C1=O | – | 53 µM | – | 2.79 µM | – | 30.1 µM | – | > 100 µM | – | > 100 µM | – | > 100 µM | – | > 100 µM | – | > 100 µM | – | > 100 µM | – | > 100 µM
4 | Clc1nc(Cl)c2ncn(C/C=C\Cn3cnc4c(Cl)nc(Cl)nc43)c2n1 | 2.09 µM | 4.82 µM | 1.97 µM | 3.76 µM | 1.48 µM | 3.26 µM | 1640 nM | 3.36 µM | 2.72 µM | 5.95 µM | 2.46 µM | 8.01 µM | 3.13 µM | 10.1 µM | 1.41 µM | 2.99 µM | 0.951 µM | 2.79 µM | 3.83 µM | 13.5 µM
5 | COC(=O)Nc1ccc2ccc3c(NC(=O)OC)ccc4ccc1c2c43 (tested in a mixture with another compound) | 6.08 µM | 30.5 µM | 5.55 µM | > 50 µM | 5.43 µM | > 50 µM | 2630 nM | > 50 µM | 7.95 µM | 35.7 µM | 4.59 µM | 19.2 µM | 13.1 µM | > 50 µM | 3.9 µM | > 50 µM | 9.23 µM | 35.6 µM | 16.9 µM | > 50 µM
6 | COc1ncnc2c(NC3OC(CO)C(O)C3O)ncnc12 (stereo not given) | – | 7.54 µM | – | > 49 µM | – | 0.604 µM | – | > 100 µM | – | 1.54 µM | – | 6.2 µM | – | 74 µM | – | 13.2 µM | – | 7.22 µM | – | 5.97 µM
7 | CCOC(=O)c1cc2c(cc1Cl)SC(N(c1ccc(F)cc1)S(=O)(=O)c1ccc(OC)cc1)=NS2(=O)=O | 12.5 µM | 27.6 µM | 21.2 µM | 51.8 µM | 17.1 µM | 32 µM | 14800 nM | 27.9 µM | 19.2 µM | 53.5 µM | 21.2 µM | 42.1 µM | 18.6 µM | 51.2 µM | 15.9 µM | 30.6 µM | 4.8 µM | 21.9 µM | 18.8 µM | 54.5 µM
8 | CN(C)c1cccc2[nH]c(-c3[nH]ncc3Nc3ccnc(N)n3)nc12 | < 0.01 µM | 0.0837 µM | 0.0259 µM | 0.998 µM | < 0.01 µM | 1.09 µM | 14.4 nM | 1.03 µM | 0.0233 µM | 0.141 µM | 0.0328 µM | 1.5 µM | 0.0152 µM | 1.77 µM | < 0.0141 µM | 1.22 µM | 0.0331 µM | 2.01 µM | 0.0399 µM | 1.01 µM
9 | COc1nccc(-c2c(-c3ccc(F)cc3)ncn2C2CCC(O)CC2)n1 (stereo not given) | 99.6 µM | > 100 µM | 78.2 µM | > 100 µM | 79.3 µM | > 100 µM | 36600 nM | > 100 µM | > 100 µM | > 100 µM | > 100 µM | > 100 µM | > 100 µM | > 100 µM | > 70.8 µM | > 100 µM | 54.5 µM | > 100 µM | 39.4 µM | > 100 µM
10 | COC(=O)c1c2c(c(C)[n+]([O-])c1C)C(=O)C=C(NCc1ccc(Cl)cc1)C2=O | 0.278 µM | 0.963 µM | 0.783 µM | 2.39 µM | 0.249 µM | 1.05 µM | 183 nM | 1.74 µM | 0.286 µM | 3.62 µM | 0.31 µM | 3.22 µM | 1.16 µM | 2.39 µM | 0.143 µM | 1.37 µM | 0.151 µM | 1.7 µM | 2.95 µM | 8.2 µM
11 | CCOC(=O)C1CCC/C1=N\N=C(N)N (stereo not given) (tested in a mixture with another compound) | – | > 100 µM | – | > 100 µM | – | > 100 µM | – | > 100 µM | – | > 100 µM | – | > 100 µM | – | > 100 µM | – | > 100 µM | – | > 100 µM | – | > 100 µM
12 | O=C1C(NCCO)=C(N2CC2)C(=O)C(NCCO)=C1N1CC1 | – | > 90.3 µM | – | > 100 µM | – | 67.1 µM | – | > 72.5 µM | – | > 100 µM | – | > 100 µM | – | > 100 µM | – | > 83.3 µM | – | > 100 µM | – | > 100 µM
13 | O=C(Oc1ccccc1)c1cc(O)c(O)c(O)c1 | 18.9 µM | > 100 µM | 8.95 µM | > 100 µM | 11.7 µM | > 100 µM | 5980 nM | > 100 µM | 26.2 µM | > 100 µM | 11.4 µM | 56.7 µM | 13.8 µM | > 100 µM | 14.3 µM | > 100 µM | 18.1 µM | > 100 µM | 29.1 µM | > 100 µM
